Measurements from PubChem BioAssay (NCI).
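Interpolation was linear, between the two tested concentrations surrounding the appropriate level; five concentrations were tested over 48 hours in 96-well plates. At the GI50, growth is halved. TGI marks complete inhibition of growth.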 Where a SMILES comes first, the peptide text is derived from it.

Legend:
Assay in all cases: NCI-60 cell line screen, 48 h
BT-549 breast = system: BT-549 breast
CAKI-1 renal = system: CAKI-1 renal
HOP-92 NSCLC = system: HOP-92 NSCLC
MCF7 breast = system: MCF7 breast
OVCAR-3 ovarian = system: OVCAR-3 ovarian
OVCAR-4 ovarian = system: OVCAR-4 ovarian
PC-3 prostate = system: PC-3 prostate
RPMI-8226 leukemia = system: RPMI-8226 leukemia
SF-539 CNS = system: SF-539 CNS
SK-MEL-28 melanoma = system: SK-MEL-28 melanoma

SMILES	TGI (BT-549 breast)	TGI (CAKI-1 renal)	TGI (HOP-92 NSCLC)	TGI (MCF7 breast)	TGI (OVCAR-3 ovarian)	TGI (OVCAR-4 ovarian)	TGI (PC-3 prostate)	TGI (RPMI-8226 leukemia)	TGI (SF-539 CNS)	TGI (SK-MEL-28 melanoma)	GI50 (BT-549 breast)	GI50 (MCF7 breast)	GI50 (OVCAR-3 ovarian)
C=C(C)[C@@H]1CC[C@]2(C(=O)OC3OC(COC4OC(CO)C(OC5OC(C)C(O)C(O)C5O)C(O)C4O)C(O)C(O)C3O)CC[C@]3(C)[C@H](CC[C@@H]4[C@@]5(C)CC[C@H](O)[C@@](C)(CO)[C@@H]5CC[C@]43C)[C@@H]12 (stereo partly specified)	> 8.43 µM	> 9.66 µM	> 6.7 µM	> 10 µM	5.16 µM	> 10 µM	> 8.45 µM	> 5.92 µM	> 7.72 µM	> 10 µM	–	–	–
CC(=O)c1cc(S(=O)(=O)c2ccc(O)c(C(C)=O)c2)ccc1O	> 100 µM	> 100 µM	> 100 µM	> 100 µM	> 100 µM	> 100 µM	> 100 µM	> 100 µM	> 100 µM	> 100 µM	–	–	–
Cc1sc2nc3n(sc4nc5sc(C)c(C)c5c(=O)n43)c(=O)c2c1C	> 100 µM	> 100 µM	> 100 µM	> 100 µM	> 100 µM	> 100 µM	> 100 µM	> 100 µM	> 100 µM	> 100 µM	–	–	–
COCCN(C(=O)c1ccccc1)C1CCC(=O)c2[nH]c3ccccc3c21 (stereo unspecified)	8.22 µM	10.9 µM	25 µM	19.2 µM	25.3 µM	22.2 µM	12.8 µM	58.6 µM	24.3 µM	16 µM	–	–	–
CCn1c(SCc2nnc(Nc3ccccc3)s2)nc2ccccc2c1=O	26.7 µM	9.04 µM	9.11 µM	> 93.6 µM	41.2 µM	5 µM	> 67.4 µM	37.1 µM	19.3 µM	60.8 µM	–	–	–
C=C(C)C(=O)O[C@H]1CC2(CO)O[C@@H]2CC/C(COC(C)=O)=C/C2OC(=O)C(=C)[C@@H]21 (stereo partly specified)	52.1 µM	> 58.8 µM	51.9 µM	57.7 µM	79.6 µM	> 100 µM	> 100 µM	31.3 µM	> 100 µM	> 64.6 µM	–	–	–
O=C1c2ccccc2C2(c3ccc(Cl)cc3)N[C@@H]3CCCC[C@@H]3N12 (stereo partly specified)	> 100 µM	> 100 µM	> 100 µM	> 100 µM	> 100 µM	> 100 µM	> 100 µM	> 100 µM	> 100 µM	> 100 µM	–	–	–
CN1CCCC(OC(=O)c2cc3cc(CCl)ccc3oc2=O)C1 (stereo unspecified)	49.2 µM	60.5 µM	30.5 µM	50.1 µM	37.8 µM	48.6 µM	41.3 µM	89.1 µM	> 100 µM	50.3 µM	–	–	–
CCOC(=O)NC(OCc1ccccc1)(C(=O)OC)C(F)(F)F (stereo unspecified)	> 100 µM	87.1 µM	> 100 µM	> 100 µM	> 100 µM	> 100 µM	> 100 µM	> 100 µM	> 100 µM	> 100 µM	–	–	–
COC(=O)NC(Nc1ccc(C)cc1)(C(F)(F)F)C(F)(F)F	> 100 µM	> 100 µM	> 100 µM	> 100 µM	> 100 µM	–	> 100 µM	> 100 µM	> 100 µM	> 100 µM	–	–	–
CCOC(=O)c1nc2ccccc2nc1Nc1ccc(F)cc1	73.2 µM	> 100 µM	43.9 µM	> 100 µM	> 100 µM	> 100 µM	> 100 µM	> 100 µM	> 58.9 µM	> 100 µM	–	–	–
Cc1ccc(C(=O)NN=C(/N=N/c2cccc(C)c2)c2ccc(N(C)C)cc2)cc1	> 100 µM	> 100 µM	> 100 µM	> 100 µM	> 100 µM	> 100 µM	> 100 µM	> 100 µM	> 100 µM	> 100 µM	–	–	–
CCn1c(O)c(C(=O)NC(C)c2ccc([N+](=O)[O-])cc2)c(=O)n(CC)c1=S (stereo unspecified)	8.8 µM	10.1 µM	8.48 µM	9.19 µM	10.5 µM	12.1 µM	10.2 µM	15 µM	13.4 µM	17.6 µM	–	–	–
CCC(C)C(NC(=O)C1CCCN1)C(=O)NC(C(=O)NCC(=O)NC(CC(N)=O)C(=O)NC(CC(C)C)C(=O)NC(CC(C)C)C(=O)NC(CCCCN)C(N)=O)C(C)C (stereo unspecified) (H-PIVGNLLK-NH2; configuration not given here)	> 75 µM	> 75 µM	> 75 µM	> 75 µM	> 75 µM	> 75 µM	> 75 µM	> 75 µM	> 75 µM	> 75 µM	–	–	–
C#Cc1cccc(Nc2ncnc3cc(OCCOC)c(OCCOC)cc23)c1	98.7 µM	10 µM	60.2 µM	> 100 µM	> 100 µM	> 100 µM	> 100 µM	> 74.7 µM	81 µM	> 100 µM	33.4 µM	> 100 µM	3.53 µM
O=C1/C(=C(/Br)I)c2ccccc2-c2ccccc21	19.1 µM	16.9 µM	8.07 µM	32.9 µM	24.6 µM	32.3 µM	23.7 µM	8.37 µM	28.7 µM	42.8 µM	–	–	–
CCOc1ccccc1N=NC1C(=O)N(C(=O)CC(=O)Nc2ccccc2OC)N=C1C (stereo unspecified)	> 100 µM	> 100 µM	56.8 µM	> 100 µM	> 100 µM	> 100 µM	> 100 µM	> 100 µM	> 100 µM	> 100 µM	–	–	–
CC(=O)Nc1nc(C)c(S(=O)(=O)NC(=O)N2c3ccccc3CCc3ccccc32)s1	> 100 µM	> 100 µM	> 100 µM	> 100 µM	> 100 µM	> 100 µM	> 100 µM	> 100 µM	> 100 µM	> 100 µM	–	–	–
C=C1CC(Cn2cc(Br)c(=O)[nH]c2=O)(c2ccc(Br)cc2)OC1=O (stereo unspecified)	8.25 µM	7.13 µM	2.96 µM	14.4 µM	> 35 µM	4.63 µM	12.8 µM	1.61 µM	23.7 µM	16.7 µM	–	–	–
O=C(O)Cn1ncn(NC(=O)Cc2ccccc2)c1=S	> 10 µM	> 10 µM	> 10 µM	> 10 µM	> 10 µM	> 10 µM	> 10 µM	> 10 µM	> 10 µM	> 10 µM	–	–	–
CCC(=O)Nc1ccc(N2C(=O)/C(=C/c3ccc(O)c(OC)c3)N=C2c2ccccc2)cc1	44.9 µM	> 100 µM	> 100 µM	> 100 µM	> 100 µM	> 100 µM	60.8 µM	> 100 µM	> 100 µM	> 100 µM	–	–	–
CC(=O)NCC1OC2COC(c3ccccc3)OC2C2N=C(c3ccccc3)OC12 (stereo unspecified)	> 100 µM	> 100 µM	> 100 µM	> 100 µM	> 100 µM	> 100 µM	> 100 µM	89.1 µM	> 100 µM	> 100 µM	–	–	–
CC(C)CCCC(C)[C@H]1CC[C@H]2NCCCC[C@]12C (stereo partly specified)	29.9 µM	22.8 µM	15.5 µM	4.37 µM	31.7 µM	17.4 µM	10.4 µM	4.01 µM	19.5 µM	5.57 µM	–	–	–
O=C1/C(=C/c2cccs2)N=C(c2ccccc2)N1c1nc2ccccc2s1	> 100 µM	> 100 µM	> 100 µM	> 100 µM	> 100 µM	–	> 100 µM	52.2 µM	> 100 µM	> 100 µM	–	–	–
O=P1(N(CCCl)CCCl)NCCCO1 (stereo unspecified)	> 250 µM	> 191 µM	> 250 µM	> 250 µM	> 250 µM	> 250 µM	> 250 µM	> 250 µM	> 250 µM	> 250 µM	–	–	–
Cn1c(=O)[nH]n(-c2ccc3ccccc3c2)c1=O	> 100 µM	> 100 µM	> 100 µM	> 100 µM	> 100 µM	> 100 µM	> 100 µM	> 100 µM	> 100 µM	> 100 µM	–	–	–
CCCCCCCCCCC[N+]1(Cc2ccccc2)CC2CCN(Cc3ccccc3)CC2C1 (stereo unspecified)	1.4 µM	2.74 µM	1.62 µM	1.62 µM	1.28 µM	2.02 µM	1.18 µM	0.378 µM	2.45 µM	1.95 µM	–	–	–
Cc1ccc(S(=O)(=O)CC2CCCn3c2c(C#N)c2ccccc23)cc1 (stereo unspecified)	> 100 µM	> 100 µM	> 100 µM	> 100 µM	> 100 µM	> 100 µM	> 100 µM	> 100 µM	> 100 µM	> 100 µM	–	–	–
Cc1cn(C2CC(SCCO)C(CO)O2)c(=O)[nH]c1=O (stereo unspecified)	> 100 µM	> 100 µM	> 100 µM	> 100 µM	> 100 µM	> 100 µM	> 100 µM	> 100 µM	> 100 µM	> 100 µM	–	–	–
Cc1cc2nc3c(N)nn(CCN(C)C)c3nc2cc1C	> 100 µM	> 100 µM	> 100 µM	> 100 µM	> 100 µM	> 100 µM	> 100 µM	> 100 µM	> 100 µM	> 100 µM	–	–	–
